Measured values as given in EP0767778B1, “1-PHENOXY-3-N-ALKYLAMINOPROPAN-2-OL HALOGEN DERIVATIVES USEFUL AS MYOCARDIAL beta [sequence] RECEPTOR MARKERS AND AS beta-BLOCKING AGENTS” (CIS BIO INTERNATIONAL, priority 1994, dated 1996).
Where two headings read alike, the source gives them in different places.

Legend:
[1] = biodistribution study in the mouse (Example 22); assay type: in vivo, souris; conditions: for Biodistribution Foie / Biodistribution Rein / Biodistribution Coeur / Biodistribution Poumon: souris swiss femelles, injection intraveineuse
Procedure: L'étude de la biodistribution des radioligands chez la souris, permet d'apprécier l'intensité relative de la fixation cardiaque de la molécule et son évolution dans le temps.
Après marquage à l'iode 123 et purification par CLHP 20µCi environ de produit sont mis en solution dans 5 ml d'une solution : éthanol 20%-sérum physiologique 80%. Après injection intraveineuse de 25 µl de cette solution dans la queue de souris vigiles (souris swiss femelles de 20 à 25 g), celles-ci (5 à chaque fois) sont sacrifiées à différents temps après l'injection. On mesure pour chaque souris les activités cardiaques, hépatique, rénale et pulmonaire. Les résultats sont exprimés en pourcentage de la dose injectée par gramme d'organe.
Le CGP12177 étant la référence, un lot de souris a été étudié après injection de CGP 12177 marqué au tritium.

[2] = octanol-water partition coefficient at room temperature; assay type: physicochemical; conditions: for COEFFICIENT DE PARTAGE OCTANOL-EAU: température ambiante
[3] = target: récepteurs β adrénergiques; experiment: displacement of [^3H]CGP 12177 previously bound on newborn rat cardiomyocytes; assay type: binding, rats nouveau-nés; conditions: read-out: CI50 (the source's name)
Text: Dans cet exemple, on teste l'affinité du composé 6 marqué avec ^123I vis-à-vis des récepteurs β adrénergiques.
On étudie sur cardiomyocytes de rats nouveau-nés la capacité du composé 6 à déplacer le [^3H]CGP 12177 préalablement fixé sur les récepteurs.

[4] = system: récepteurs β adrénergiques; experiment: isolated perfused rat heart (Langendorff), antagonism of isoprenaline on dP/dt max
Procedure: Dans cet exemple, on teste la propriété pharmacologique antagoniste du composé 6 vis-à-vis des récepteurs β adrénergiques.
L'expérience est conduite sur coeur de rat isolé et perfusé selon la technique de Langendorff.
Après une préperfusion de 25 minutes avec une solution de Krebs-Henseleit, le coeur est perfusé avec de l'isoprénaline à la concentration de 10^-8M pendant 10 minutes; puis avec une solution d'isoprénaline à 10^-8M associée à la molécule à tester à la concentration de 10^-6M.
Si la molécule à tester diminue la dP/dt max en présence d'isoprénaline, on pourra affirmer que cette molécule se comporte comme un antagoniste de l'isoprénaline vis-à-vis des récepteurs β adrénergiques.

[5] = radioactivity in organs after injection in the mouse (Example 10); assay type: in vivo; conditions: souris, 329.10^-12 mol
Text: Dans cet exemple, on teste chez la souris les propriétés du [^123I] - composé 6 comme traceur radioactif pour l'examen du myocarde.
Après injection de 500.10^-12 mol de [^123I]-composé 6, les animaux sont sacrifiés et les organes d'intérêt récupérés et comptés. Le tableau 3 qui suit reporte les valeurs de la radioactivité trouvée dans les organes ou liquides biologiques exprimées en pourcentage de la dose injectée par gramme d'organe. TABLEAU 3 :
Dans le tableau 4 qui suit, on a donné à titre comparatif les résultats obtenus lorsqu'on injecte 329.10^-12 mol de [^3H]CGP 12177.

[6] = [^3H]CGP 12177 5.10^-9M, 30 minutes d'incubation, cardiomyocytes de rats nouveau-nés

## CC(C)NCC(O)COc1ccc(OCOCC=CI)cc1 (racemic) [composé 10, 1-[4-(5-iodo-2-oxapent-4-ényloxy)phénoxy]3-isopropylaminopropan-2-ol]
[1]; 2'
  Biodistribution Foie: 7,2 ± 1,1 pourcentage de la dose injectée par gramme d'organe
  Biodistribution Rein: 14,8 ± 1 pourcentage de la dose injectée par gramme d'organe
[1]; 5'
  Biodistribution Foie: 10,2 ± 1,1 pourcentage de la dose injectée par gramme d'organe
  Biodistribution Rein: 14 ± 1,1 pourcentage de la dose injectée par gramme d'organe
[1]; 10'
  Biodistribution Foie: 6,3 ± 3,3 pourcentage de la dose injectée par gramme d'organe
  Biodistribution Rein: 10,7 ± 1,1 pourcentage de la dose injectée par gramme d'organe
[1]; 15"
  Biodistribution Coeur: 28,4 ± 3,6 pourcentage de la dose injectée par gramme d'organe
  Biodistribution Foie: 1,7 ± 0,8 pourcentage de la dose injectée par gramme d'organe
  Biodistribution Poumon: 144,52 pourcentage de la dose injectée par gramme d'organe
  Biodistribution Rein: 11,4 ± 5,1 pourcentage de la dose injectée par gramme d'organe
[1]; 15'
  Biodistribution Coeur: 3,9 ± 0,2 pourcentage de la dose injectée par gramme d'organe
  Biodistribution Foie: 9 ± 0,2 pourcentage de la dose injectée par gramme d'organe
  Biodistribution Poumon: 2,3 ± 7 pourcentage de la dose injectée par gramme d'organe
  Biodistribution Rein: 9,1 ± 0,4 pourcentage de la dose injectée par gramme d'organe
[1]; 30'
  Biodistribution Coeur: 3,1 ± 0,15 pourcentage de la dose injectée par gramme d'organe
  Biodistribution Foie: 7,2 ± 0,8 pourcentage de la dose injectée par gramme d'organe
  Biodistribution Poumon: 22 ± 4 pourcentage de la dose injectée par gramme d'organe
  Biodistribution Rein: 7,6 ± 0,2 pourcentage de la dose injectée par gramme d'organe
[1]; 2 min.
  Biodistribution Coeur: 15 ± 1,5 pourcentage de la dose injectée par gramme d'organe
  Biodistribution Poumon: 60 ± 10 pourcentage de la dose injectée par gramme d'organe
[1]; 5 min.
  Biodistribution Coeur: 9,5 ± 2,3 pourcentage de la dose injectée par gramme d'organe
  Biodistribution Poumon: 58 ± 4 pourcentage de la dose injectée par gramme d'organe
[1]; 10 min.
  Biodistribution Coeur: 5,3 ± 0,15 pourcentage de la dose injectée par gramme d'organe
  Biodistribution Poumon: 33 ± 14 pourcentage de la dose injectée par gramme d'organe
[2]; pH 7
  Coefficient de partage octanol-eau à pH 7: 13,2

## CC(C)NCC(O)COc1ccc(CC(N)=O)cc1 (centres unmarked) [atenolol, reference compound]
[3]; [6]
  IC50: 19000 nM

## CC(C)NCC(O)COc1ccc(NC(=O)CCC=CI)cc1 (centres unmarked) [composé 6, 1-[4-(4-iodobut-3-énamido)phénoxy]-3-N-isopropyl aminopropan-2-ol]
[4]; Isoprénaline + molécule (10^e+8 min), isoprénaline 10^-8M, test molecule 10^-6M, n=6
  DP/dt max: 973±240 mmHg/min
[4]; effet antagoniste, summary
  pourcentage d'inhibition vis-à-vis de l'isoprénaline: 116%
[4]; isoprénaline 10^-8M + molecule 10^-6M
  effect on the action of isoprénaline on dP/dt max: antagonise complètement l'action de l'isoprénaline
[3]; [6]
  IC50: 2000 nM
[3]; summary, unit inferred
  IC50: 2040 nM

## (2S)-4 (3-t-butylamino-2-hydroxypropoxy)-benzimidazol-2-one [[^3H]-CGP 12177, reference compound]
[1]; 1 min.
  Biodistribution Coeur: 9 ± 1,4 pourcentage de la dose injectée par gramme d'organe
  Biodistribution Poumon: 66,3 ± 9,2 pourcentage de la dose injectée par gramme d'organe
[1]; 2 min.
  Biodistribution Coeur: 7,2 ± 0,9 pourcentage de la dose injectée par gramme d'organe
  Biodistribution Poumon: 44,3 ± 8,6 pourcentage de la dose injectée par gramme d'organe
[1]; 5 min.
  Biodistribution Coeur: 7,0 ± 1 pourcentage de la dose injectée par gramme d'organe
  Biodistribution Poumon: 37,9 ± 9,3 pourcentage de la dose injectée par gramme d'organe
[1]; 10 min.
  Biodistribution Coeur: 6,7 ± 1,3 pourcentage de la dose injectée par gramme d'organe
  Biodistribution Poumon: 42 ± 8,5 pourcentage de la dose injectée par gramme d'organe
[1]; souris, plateau dès la 2ème minute après l'injection
  activité dans le myocarde (plateau): ~7 % de la dose injectée par gramme d'organe
[5]; 1 min
  radioactivité COEUR: 6,8±4 pourcentage de la dose injectée par gramme d'organe
  radioactivité POUMON: 26,3±2,1 pourcentage de la dose injectée par gramme d'organe
[5]; 2 min
  radioactivité COEUR: 6,3±0,3 pourcentage de la dose injectée par gramme d'organe
  radioactivité POUMON: 31,6±6,8 pourcentage de la dose injectée par gramme d'organe
[5]; 5 min
  radioactivité COEUR: 5,9±0,8 pourcentage de la dose injectée par gramme d'organe
  radioactivité POUMON: 29,7±5,8 pourcentage de la dose injectée par gramme d'organe
[5]; 10 min
  radioactivité COEUR: 5,3±0,2 pourcentage de la dose injectée par gramme d'organe
  radioactivité POUMON: 29±5,1 pourcentage de la dose injectée par gramme d'organe
[2]; pH=4,2
  COEFFICIENT DE PARTAGE OCTANOL-EAU: 0,0088
[2]; pH=7,4
  COEFFICIENT DE PARTAGE OCTANOL-EAU: 0,18
